Laboratory results taken from US10626145B2, “Peptide with anti-obesity and anti-diabetes activity and use thereof” (CAREGEN CO., LTD., priority 2015, dated 2020).

Experiments:
[1] = system: 3T3-L1 cells (pre-adipocytes); assay: Suppression of lipid accumulation in pre-adipocytes (Oil Red O staining); assay type: cell-based, mouse; conditions: 3T3-L1, various concentrations, differentiation induced for 10 days
Description: The pre-adipocytes 3T3-L1 cells were grown to confluence and then incubated for two days with various concentrations of the peptides in a differentiation medium containing 10 μg/ml insulin, 0.1 μM dexamethasone, and 0.5 μM IBMX. The medium was exchanged every two days with a medium containing 10 μg/ml insulin. After differentiation was induced for 10 days, the generation of droplet in the cells was examined by Oil Red O staining. The prepared 3T3-L1 adipocytes were washed with PBS, fixed with 3.7% formalin for one hour, and washed with 60% isopropanol. The resulting cells were dyed with Oil Red O reagent at room temperature for 20 min. After removal of the Oil Red O reagent, the cells were washed three times with distilled water, and observed under a phase-contrast microscope. For quantitative analysis, fats were extracted from the cells using 100% isopropanol, and the cells were transferred in an amount of 200 μl/well into 96-well plates and measured for optical density at 500 nm using an ELISA reader.

[2] = system: aP2; assay: RT-PCR expression of adipogenic marker aP2 in 3T3-L1; assay type: cell-based, mouse; conditions: for expression level of adipogenic marker aP2 (individual peptides): 3T3-L1, incubated for three days
Description: (§1) 3T3-L1 cells (pre-adipocytes) were seeded at a density of 3×10^5 cells/well into 6-well plates. […] Thereafter, the cells were harvested and treated with an RNA extraction solution (Easy Blue, Intron) to prepare RNA from which cDNA was then synthesized using an RT premix (Intron). PCR was performed using primers for […] markers (PPARγ, ACC, and aP2), and a PCR premix (Intron).
(§2) Target-specific primer sequences for PCR of adipogenic markers were as follows: PPARγ forward primer sequence, 5′-[…]-3′ and PPARγ reverse primer, 5′-[…]-3′ (annealing temperature, 60° C.); ACC forward primer sequence, 5′-[…]-3′ and ACC reverse primer, 5′-[…]-3′ (annealing temperature, 60° C.); aP2 forward primer sequence, 5′-[…]-3′ and aP2 reverse primer, 5′-[…]-3′ (annealing temperature, 60° C.)
(§3) PCR products were each loaded in a volume of 5 μl into a 1% agarose gel, and electrophoresed, followed by identifying bands in a Gel-Doc.

[3] = system: DB/DB diabetes-induced mice; assay: Blood sugar over time in DB/DB diabetes-induced mice given individual peptides; assay type: in vivo, mouse; conditions: starved 16 hours, fed 30 min, then peptide administered
Description: In addition, after starvation for 16 hours, DB/DB diabetes-induced mice were fed for 30 min and then administered with the peptides. Blood sugar levels were measured over times.

[4] = system: IGF-1; assay: Western blotting of IGF-1 expression in 3T3-L1; assay type: cell-based, mouse; conditions: 3T3-L1, 10 ng-1 μg/ml, 14 days; dose-dependent
Description: (§4) 3T3-L1 cells (pre-adipocytes) were seeded at a density of 3×10^5 cells/well into 6-well plates and grown for 24 hours. Subsequently, the cells were incubated with various concentrations (10 ng-1 μg/ml) of the peptides for 14 days in a 37° C. incubator. Proteins were extracted from cell lysates which were obtained by treatment with cell lysis buffer, quantitatively analyzed, and subjected to Western blotting using an anti-IGF-1 antibody, which is an antibody against the lipolytic marker, and an insulin antibody (Santa Cruz Biotechnology, USA).

[5] = system: insulin; assay: Western blotting of insulin expression in 3T3-L1; assay type: cell-based, mouse; conditions: 3T3-L1, 10 ng-1 μg/ml, 14 days; dose-dependent
Description: as §4

[6] = system: PPARγ; assay: RT-PCR expression of adipogenic marker PPARγ in 3T3-L1; assay type: cell-based, mouse; conditions: 3T3-L1, three days; complex 0.1, 1, 10 μg/ml; TNFα 100 ng/ml
Description: as §1, §2, §3

[7] = system: ACC; assay: RT-PCR expression of adipogenic marker ACC in 3T3-L1; assay type: cell-based, mouse; conditions: 3T3-L1, three days; complex 0.1, 1, 10 μg/ml; TNFα 100 ng/ml
Description: as §1, §2, §3

[8] = system: DIO (diets induced obesity) models; assay: Weight loss and adipogenesis suppression in high-fat diet-fed animal (DIO), 12 weeks; assay type: in vivo, mouse; conditions: for Weight: intraperitoneal injection; for Weight (%): relative to initial weight
Description: Models DIO (diets induced obesity), which had become obese by feeding high-fat diets thereto, were used for anti-obesity experiments in which TNFα 5 μg/ml was used as a positive control. For a control, a general diet, not a high-fat diet, was fed. In the experiment, a high-fat diet was fed for 12 weeks while the peptide complex or the positive control was applied. During the experiment, the weight was monitored. TNFα and the anti-obesity compounds were intraperitoneally injected at PM 3-4 o'clock every week for 12 weeks. Weights and meal sizes were measured just before the initial injection and then regularly at intervals of one week. Blood samples were taken from tail veins after the experiments of drug injection and measured for blood sugar levels, using Accu-Check Active (Roche) and analyzed for cholesterol levels, using Cholesterol calculation Kit (BioVision). Adipose tissues are divided into white fat and brown fat by color and into subcutaneous fat, abdominal fat, mesentery fat (visceral fat), and epididymal fat by tissue. After lipoectomy, the fats thus obtained from the tissues were observed. For histological examination, the fats were fixed with 10% neutral buffered formalin, embedded in paraffin blocks, cut into 5 μm-thick sections, and dyed with hematoxylin and eosin. To analyze the phosphorylation of the lipolytic marker HSL, fluorescent staining was carried out with an anti-pHSL antibody. A tissue sample was made, mounted on glycerine jell mounting media, and covered with a cover glass. The tissues were observed under a microscope (Nikon, TS100), with a built-in digital camera taking images thereof.

Q: ASYLPHPWFS (Peptide 5) [SEQ ID NO: 5] was tested. Which “extent of fat (lipid) accumulation in cells, Oil red O staining” value [1] did it give?
A: decreased

Q: What about the “expression level of adipogenic marker aP2 (individual peptides)” value [2] of the same substance?
A: decreased

Q: And the “blood sugar levels over time” value [3]?
A: decrease in a time-dependent manner

Q: How did the “extent of fat (lipid) accumulation in cells, Oil red O staining” value [1] turn out when KGASTGWMA (Peptide 3) [SEQ ID NO: 3] was run?
A: decreased

Q: And the “expression level of adipogenic marker aP2 (individual peptides)” value [2]?
A: decreased

Q: And the “blood sugar levels over time” value [3]?
A: decrease in a time-dependent manner

Q: Which results are given for “NH2-Leu-Lys-Thr-Arg-Asn-COOH (H-LKTRN-OH) [SEQ ID NO: 1]”?
A: extent of fat (lipid) accumulation in cells, Oil red O staining [1]: decreased; expression level of adipogenic marker aP2 (individual peptides) [2]: decreased; blood sugar levels over time [3]: decrease in a time-dependent manner

Q: How did the “expression of IGF-1” value [4] turn out when SDLRRLEMYS (Peptide 7) [SEQ ID NO: 7] was run?
A: increased

Q: What about the expression of insulin [5] of the same substance?
A: increased

Q: What does the source list for TNFα?
A: expression of adipogenic marker aP2 ([2]; 3T3-L1, three days, complex 0.1, 1, 10 μg/ml, TNFα 100 ng/ml): decrease; expression of adipogenic marker PPARγ [6]: decrease; expression of adipogenic marker ACC [7]: decrease; Weight ([8]; 0 w): 22.41 g; Weight (%) ([8]; 0 w): 100%; Weight ([8]; 1 w): 23 g; Weight (%) ([8]; 1 w): 102.6%; Weight ([8]; 2 w): 26.12 g; Weight (%) ([8]; 2 w): 116.6%; Weight ([8]; 3 w): 27.45 g; Weight (%) ([8]; 3 w): 122.5%; Weight ([8]; 4 w): 30.51 g; Weight (%) ([8]; 4 w): 136.1%; Weight ([8]; 5 w): 32.76 g; Weight (%) ([8]; 5 w): 146.2%; Weight ([8]; 6 w): 33.49 g; Weight (%) ([8]; 6 w): 149.4%; Weight ([8]; 7 w): 35.14 g; Weight (%) ([8]; 7 w): 156.8%; Weight ([8]; 8 w): 37.15 g; Weight (%) ([8]; 8 w): 165.8%; Weight ([8]; 9 w): 38.97 g; Weight (%) ([8]; 9 w): 173.9%; Weight ([8]; 10 w): 40.39 g; Weight (%) ([8]; 10 w): 180.2%; Weight ([8]; 11 w): 41.35 g; Weight (%) ([8]; 11 w): 184.5%; Weight ([8]; 12 w): 43.91 g; Weight (%) ([8]; 12 w): 195.9%
